The numbers were not newly measured in patent US9079157B2, “Protein removal agent” (Thermo Fisher Scientific Baltics, UAB, priority 2012, dated 2015), which cites them from elsewhere.

The test system of this data set is enzymes. To be noted: referenced in the BRENDA database.

Regarding `O=C(O)CCCCC(=O)O` [adipic, adipic acid], the “Number of inhibited enzymes” value was 10.
Take `O=C(O)CC(O)(CC(=O)O)C(=O)O` [citric acid]: the “Number of inhibited enzymes” value was 203.
Take `O=C(O)CCCC(=O)O` [glutaric, glutaric acid]: the “Number of inhibited enzymes” value is 25.
In the case of `O=C(O)CC(=O)O` [malonic, malonic acid], the “Number of inhibited enzymes” value is recorded as 63.
Consider `O=C(O)C(=O)O` [oxalic, oxalic acid], for which the “Number of inhibited enzymes” value was 119.
For `O=C(O)CCCCCC(=O)O` [pimelic, pimelic acid], the “Number of inhibited enzymes” value is given as 3.
As for `O=C(O)CCCCCCC(=O)O` [suberic, suberic acid], the “Number of inhibited enzymes” value is reported as 0.
With `O=C(O)CCC(=O)O` [succinic, succinic acid], the “Number of inhibited enzymes” value is reported as 115.
